Source: patent US9856279B2 (AGIOS PHARMACEUTICALS, INC, priority 2011, dated 2018)

Experiments:
U87MG cells = experiment: Cellular assay for IDH1m inhibitors: inhibition of 2-HG production (LC-MS, 48 hours) in U87MG cells; assay type: cell-based; settings: Homo sapiens, U-87 MG, inhibition of 2-HG production, U87R132H cells; read-out: U87R132H IC50
How it was run: (§1)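 The read-out is 2-HG in culture medium, measured by LC-MS after 48 h of compound exposure (0.2% DMSO) in cells plated overnight at 5000 per well in DMEM/10% FBS. IC50 is 50% reduction relative to DMSO wells. Luminescent viability (Cell Titer Glo) followed at 72 h.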

HT1080 cells = experiment: Cellular assay for IDH1m inhibitors: inhibition of 2-HG production (LC-MS, 48 hours) in HT1080 cells; assay type: cell-based; settings: Homo sapiens, HT-1080; inhibition of 2-HG production, HT1080 cells; read-out: HT1080 IC50
How it was run: as §1

IDH1 R132H = IDH1 R132H (Homo sapiens, UniProt O75874, R132H); experiment: Assay for IDH1 R132H inhibitors (NADPH/aKG, resazurin detection); assay type: biochemical; settings: enzyme assay of Example 12; read-out: IDH1R132H IC50
How it was run: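 Read-out is resorufin fluorescence (Ex544/Em590) 5 min after adding a 30 μM resazurin detection mix. Before that, mutant enzyme (0.2 μg/ml in its mix) ran 50 min at room temperature with compound, 8 uM NADPH and 2 mM aKG (mix levels) in Tris pH 7.5 with NaCl, MgCl2, BSA.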

Measured: IC50

Chain of IDH1 R132H (O75874 whole entry R132H): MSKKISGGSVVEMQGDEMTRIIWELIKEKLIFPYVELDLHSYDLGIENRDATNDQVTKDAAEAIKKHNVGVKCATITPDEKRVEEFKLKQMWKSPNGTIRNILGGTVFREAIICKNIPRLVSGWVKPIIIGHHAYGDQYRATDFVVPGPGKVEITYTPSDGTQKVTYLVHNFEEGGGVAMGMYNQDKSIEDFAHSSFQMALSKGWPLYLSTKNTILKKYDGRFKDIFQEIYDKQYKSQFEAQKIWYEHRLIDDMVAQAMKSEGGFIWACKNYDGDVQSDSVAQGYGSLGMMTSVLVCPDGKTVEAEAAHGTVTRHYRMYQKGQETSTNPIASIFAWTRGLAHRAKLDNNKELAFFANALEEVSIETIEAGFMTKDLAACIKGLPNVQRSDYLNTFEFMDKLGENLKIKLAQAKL

C=Cc1ccnc(Nc2cc(C#N)c(N3CCN(C(=O)CCO)[C@H](C4CC4)C3)nc2C2CC2)c1 [Compound 756, (R)-6-cyclopropyl-2-(3-cyclopropyl-4-(3-hydroxypropanoyl)piperazin-1-yl)-5-((4-vinylpyridin-2-yl)amino)nicotinonitrile]
< 500 nM: all assays above

C=Cc1cc(-c2c(C3CC3)nc(N3CCN(C(=O)C[C@H]4CCO4)[C@H](C4CC4)C3)c(C#N)c2C)ccn1 [Compound 760, 2-cyclopropyl-6-((R)-3-cyclopropyl-4-(2-((R)-oxetan-2-yl)acetyl)piperazin-1-yl)-4-methyl-2′-vinyl-3,4′-bipyridine-5-carbonitrile]
< 500 nM: all assays above

C=Cc1cc(-c2c(C3CC3)nc(N3CCN(C(=O)C[C@@H]4CCO4)[C@H](C4CC4)C3)c(C#N)c2C)ccn1 [Compound 761, 2-cyclopropyl-6-((R)-3-cyclopropyl-4-(2-((S)-oxetan-2-yl)acetyl)piperazin-1-yl)-4-methyl-2′-vinyl-3,4′-bipyridine-5-carbonitrile]
< 500 nM: all assays above

C=CC(=O)N1CCC=C(c2c(C3CC3)nc(N3CCN(C(=O)CCO)[C@H](C(C)C)C3)c(C#N)c2C)C1 [Compound 762, (R)-1′-acryloyl-2-cyclopropyl-6-(4-(3-hydroxypropanoyl)-3-isopropylpiperazin-1-yl)-4-methyl-1′,2′,5′,6′-tetrahydro-[3,3′-bipyridine]-5-carbonitrile]
< 500 nM: all assays above

C=Cc1ccnc(Nc2cc(C#N)c(N3CCN(C(=O)C[C@H]4CCO4)[C@H](C(C)C)C3)nc2C2CC2)c1 [Compound 764, 6-cyclopropyl-2-((R)-3-isopropyl-4-(2-((R)-oxetan-2-yl)acetyl)piperazin-1-yl)-5-((4-vinylpyridin-2-yl)amino)nicotinonitrile]
< 500 nM: all assays above

C=Cc1cnc2c(-c3c(C4CC4)nc(N4CCN(C(=O)CCOC)[C@H](C(C)C)C4)c(C#N)c3C)cccc2n1 [Compound 765, 6-cyclopropyl-2-((R)-3-isopropyl-4-(3-methoxypropanoyl)piperazin-1-yl)-4-methyl-5-(2-vinylquinoxalin-5-yl)nicotinonitrile]
< 500 nM: all assays above

C=Cc1cnnc(-c2cc(C#N)c(N3CCN(C(=O)C[C@H]4CCO4)[C@H](C4CC4)C3)nc2C2CC2)c1 [Compound 766, 6-cyclopropyl-2-((R)-3-cyclopropyl-4-(2-((R)-oxetan-2-yl)acetyl)piperazin-1-yl)-5-(5-vinylpyridazin-3-yl)nicotinonitrile]
< 500 nM: all assays above

C=Cc1cnnc(-c2c(C3CC3)nc(N3CCN(C(=O)CCO)[C@H](C4CC4)C3)c(C#N)c2C)c1 [Compound 767, (R)-6-cyclopropyl-2-(3-cyclopropyl-4-(3-hydroxypropanoyl)piperazin-1-yl)-4-methyl-5-(5-vinylpyridazin-3-yl)nicotinonitrile]
< 500 nM: all assays above

C=Cc1cnnc(-c2c(C3CC3)nc(N3CCN(C(=O)C[C@H]4CCO4)[C@H](C4CC4)C3)c(C#N)c2C)c1 [Compound 768, 6-cyclopropyl-2-((R)-3-cyclopropyl-4-(2-((R)-oxetan-2-yl)acetyl)piperazin-1-yl)-4-methyl-5-(5-vinylpyridazin-3-yl)nicotinonitrile]
< 500 nM: all assays above

C=Cc1cnnc(-c2c(C3CC3)nc(N3CCN(C(=O)/C=C/CCO)[C@H](C4CC4)C3)c(C#N)c2C)c1 [Compound 769, (R,E)-6-cyclopropyl-2-(3-cyclopropyl-4-(5-hydroxypent-2-enoyl)piperazin-1-yl)-4-methyl-5-(5-vinylpyridazin-3-yl)nicotinonitrile]
< 500 nM: all assays above

C=Cc1cc(-c2c(C3CC3)nc(N3CCN(C(=O)CCCO)[C@H](C4CC4)C3)c(C#N)c2C)ccn1 [Compound 770, (R)-2-cyclopropyl-6-(3-cyclopropyl-4-(4-hydroxybutanoyl)piperazin-1-yl)-4-methyl-2′-vinyl-3,4′-bipyridine-5-carbonitrile]
< 500 nM: all assays above

C=Cc1cnnc(-c2c(C3CC3)nc(N3CCN(C(=O)OC(C)(C)C)[C@H](C4CC4)C3)c(C#N)c2C)c1 [Compound 771, (R)-tert-butyl 4-(3-cyano-6-cyclopropyl-4-methyl-5-(5-vinylpyridazin-3-yl)pyridin-2-yl)-2-cyclopropylpiperazine-1-carboxylate]
< 500 nM: all assays above

C=Cc1cc(Nc2cc(C#N)c(N3CCN(C(=O)C[C@@H]4CCO4)[C@H](C4CC4)C3)nc2C2CC2)ccn1 [Compound 774, 6-cyclopropyl-2-((R)-3-cyclopropyl-4-(2-((S)-oxetan-2-yl)acetyl)piperazin-1-yl)-5-((2-vinylpyridin-4-yl)amino)nicotinonitrile]
< 500 nM: all assays above

C=Cc1cnnc(Nc2cc(C#N)c(N3CCN(C(=O)CCOC)[C@H](C4CC4)C3)nc2C2CC2)c1 [Compound 775, (R)-6-cyclopropyl-2-(3-cyclopropyl-4-(3-methoxypropanoyl)piperazin-1-yl)-5-((5-vinylpyridazin-3-yl)amino)nicotinonitrile]
< 500 nM: all assays above

C=Cc1cc(-c2c(C3CC3)nc(N3CCN(C(=O)CCO)[C@H](C4CC4)C3)c(C#N)c2C)cnn1 [Compound 776, (R)-6-cyclopropyl-2-(3-cyclopropyl-4-(3-hydroxypropanoyl)piperazin-1-yl)-4-methyl-5-(6-vinylpyridazin-4-yl)nicotinonitrile]
< 500 nM: all assays above

C=Cc1cc(Oc2c(C3CC3)nc(N3CCN(C(=O)CCO)[C@H](C4CC4)C3)c(C#N)c2C)ccn1 [Compound 777, (R)-6-cyclopropyl-2-(3-cyclopropyl-4-(3-hydroxypropanoyl)piperazin-1-yl)-4-methyl-5-((2-vinylpyridin-4-yl)oxy)nicotinonitrile]
< 500 nM: all assays above

C=Cc1cc(-c2cc(C#N)c(N3CCN(C(=O)C[C@H]4CCO4)[C@H](C4CC4)C3)nc2C2CC2)c2cnn(C)c2n1 [Compound 778, 6-cyclopropyl-2-((R)-3-cyclopropyl-4-(2-((R)-oxetan-2-yl)acetyl)piperazin-1-yl)-5-(1-methyl-6-vinyl-1H-pyrazolo[3,4-b]pyridin-4-yl)nicotinonitrile]
< 500 nM: all assays above

C=Cc1cc(-c2c(C3CC3)nc(N3CCN(C(=O)C[C@H]4CCO4)[C@H](C(C)C)C3)c(C#N)c2C)ccn1 [Compound 781, 2-cyclopropyl-6-((R)-3-isopropyl-4-(2-((R)-oxetan-2-yl)acetyl)piperazin-1-yl)-4-methyl-2′-vinyl-3,4′-bipyridine-5-carbonitrile]
< 500 nM: all assays above

C=Cc1cc(-c2c(C3CC3)nc(N3CCN(C(=O)CC4CCCC4)[C@H](C4CC4)C3)c(C#N)c2C)ccn1 [Compound 782, (R)-6-(4-(2-cyclopentylacetyl)-3-cyclopropylpiperazin-1-yl)-2-cyclopropyl-4-methyl-2′-vinyl-3,4′-bipyridine-5-carbonitrile]
< 500 nM: all assays above

C=Cc1cnnc(-c2c(C3CC3)nc(N3CCN(C(=O)CCO)[C@H](C(C)C)C3)c(C#N)c2C)c1 [Compound 784, (R)-6-cyclopropyl-2-(4-(3-hydroxypropanoyl)-3-isopropylpiperazin-1-yl)-4-methyl-5-(5-vinylpyridazin-3-yl)nicotinonitrile]
< 500 nM: all assays above

C=Cc1cc(-c2c(C3CC3)nc(N3CCN(C(=O)C[C@H]4CCO4)[C@H](C4CC4)C3)c(C#N)c2C)cnn1 [Compound 785, 6-cyclopropyl-2-((R)-3-cyclopropyl-4-(2-((R)-oxetan-2-yl)acetyl)piperazin-1-yl)-4-methyl-5-(6-vinylpyridazin-4-yl)nicotinonitrile]
< 500 nM: all assays above

C=Cc1cc(-c2c(C3CC3)nc(N3CCN(C(=O)C[C@H]4CCO4)[C@H](C(C)C)C3)c(C#N)c2C)cnn1 [Compound 786, 6-cyclopropyl-2-((R)-3-isopropyl-4-(2-((R)-oxetan-2-yl)acetyl)piperazin-1-yl)-4-methyl-5-(6-vinylpyridazin-4-yl)nicotinonitrile]
< 500 nM: all assays above

C=Cc1cc(-c2c(C3CC3)nc(N3CCN(C(=O)CC4CC4)[C@H](C4CC4)C3)c(C#N)c2C)ccn1 [Compound 787, (R)-2-cyclopropyl-6-(3-cyclopropyl-4-(2-cyclopropylacetyl)piperazin-1-yl)-4-methyl-2′-vinyl-3,4′-bipyridine-5-carbonitrile]
< 500 nM: all assays above

C=Cc1cc(-c2c(C3CC3)nc(N3CCN(C(=O)CCCOC)[C@H](C(C)C)C3)c(C#N)c2C)ccn1 [Compound 788, (R)-2-cyclopropyl-6-(3-isopropyl-4-(4-methoxybutanoyl)piperazin-1-yl)-4-methyl-2′-vinyl-3,4′-bipyridine-5-carbonitrile]
< 500 nM: all assays above
